Data reported in US8642337B2, “Defined surfaces of self-assembled monolayers and stem cells” (Wisconsin Alumni Research Foundation, priority 2005, dated 2014).
No end group written: not given here.

How the values were obtained:
[1] = test system: SH-SY5Y neuroblastoma cells; assay: Neuroblastoma adhesion on patterned SAM chips/arrays; assay type: cell-based
Description: (§1) General Preparation of the Arrays of Self-Assembled Monolayers (Assembly After Conjugation Strategy): Chromium (1 nm) and then gold (25 nm) were evaporated onto piranha-cleaned glass coverslips (Corning No […], 23 mm squares) using a thermal evaporator (Denton Vacuum, Moorestown, N.J.). Substrates were immediately immersed into a 1 mM solution of fluoro-AT in absolute ethanol. After twenty-four hours, substrates were thoroughly rinsed with ethanol and dried under a stream of nitrogen. Coverslips with fluoro-AT SAM were irradiated with UV-light (1 kW, Hg—Xe Research Arc Lamp, Oriel Instruments (Spectra-Physics, Stratford, Conn.) through a quartz photomask (array of 500 μm or 750 μm squares, 0.067 quartz-chromium mask (Photo Sciences, Torrance, Calif.)) for 1 hour. Irradiated samples were rinsed thoroughly using several repetitive washes with absolute ethanol and distilled water and dried under a steam of nitrogen. Spotting of AT solutions onto the bare gold areas was performed within two hours of the photolithography. Spotting was performed manually using a P2-Pipetman (Gilson) in a humidity chamber. Spotted arrays were stored in the humidity chamber for twelve hours and thoroughly washed using repeated washes with ethanol and water. Rapid flow during washing was used to prevent cross-contamination of array spots.
Cell Culture: A neuroblastoma cell line, SH-SY5Y, was grown in 10% heat-inactivated fetal bovine serum (HI FBS), 45% high glucose Dulbecco's modified Eagle medium (DMEM), 45% Ham's F12 nutritional supplement (F12) with penicillin and streptomycin in an atmosphere of 5% CO2 at 37° C. A fibroblast cell line, Swiss 3T3, was propagated in 10% HI FBS in DMEM. For plating of the cells on the chips, cells were incubated at 37° C. with 5% trypsin/ethylenediamine-tetraacetic acid (EDTA), centrifuged and resuspended in media at 2×10^5 cells/mL and 5×10^5 cells/mL for the fibroblasts and neuroblastomas, respectively. Chips were sterilized by placing each in a single well of a 6-well plate, soaking in 70% ethanol, and drying under UV light for 1 hour. To the individual chips was added 3 mL of the cell suspensions to each well. After 2-5 hours, the media was gently replaced three times and the chips were picked up, transferred to a clean well and 3 mL of media was added. The cells on the chips were typically propagated between 1-7 days. The media was then removed, and the cells were fixed in PFA buffer (2% paraformaldehyde, 350 mM NaCl, 150 mM HEPES, 10 mM CaCl2, pH 7.4) for 20 minutes at 0° C. The cells were washed twice with Dulbecco's phosphate buffered saline and stained (0.1% Coomassie Brilliant Blue in H2O/MeOH/AcOH (50:50:1)) for 5-15 minutes after which the cells were washed twice with water and air dried. […]

[2] = test system: Swiss 3T3 fibroblast cells; assay: Fibroblast adhesion on patterned SAM chips/arrays; assay type: cell-based
Description: as §1
Cell Culture: A neuroblastoma cell line, SH-SY5Y, was grown in 10% heat-inactivated fetal bovine serum (HI FBS), 45% high glucose Dulbecco's modified Eagle medium (DMEM), 45% Ham's F12 nutritional supplement (F12) with penicillin and streptomycin in an atmosphere of 5% CO2 at 37° C. A fibroblast cell line, Swiss 3T3, was propagated in 10% HI FBS in DMEM. For plating of the cells on the chips, cells were incubated at 37° C. with 5% trypsin/ethylenediamine-tetraacetic acid (EDTA), centrifuged and resuspended in media at 2×10^5 cells/mL and 5×10^5 cells/mL for the fibroblasts and neuroblastomas, respectively. Chips were sterilized by placing each in a single well of a 6-well plate, soaking in 70% ethanol, and drying under UV light for 1 hour. […]

[3] = test system: hES cells; assay: FACS analysis of ES cells proliferated on large areas presenting synthetic substrates (one-component SAMs); assay type: cell-based, human; conditions: for Oct4 (% population): FACS, ES cells on one-component SAMs on 22×22 mm gold-coated substrates, after 1 week
Description: Examination of the cell population within an array element provides a semi-quantitative indication of differentiation state of the ES cells. More rigorous analysis involves fluorescence-activated cell sorting (FACS) measurements to identify what population of the cells express specific markers of pluripotent stem cells. Therefore, we proliferated hES cells on gold-coated substrates of larger area (22×22 mm) containing one-component SAMs. FIG. 2a illustrate a representative FACS analysis of an ES cell population grown on a synthetic substrate after 1 week. Table 1 outlines the percentages of Oct4 positive cells obtained from each particular substrate. […] Specifically, we tested hES cell line H9 grown in synthetic media supplemented with high concentrations of basic FGF (referred to as UM100, indicating presence of […] of FGF-2 among the other components). Importantly, these conditions support growth of undifferentiated hES cells on Matrigel®.

[4] = test system: hES cells (H1B); assay: Differentiation experiment: Oct-4 immunofluorescence on peptide surface arrays; assay type: cell-based, human; conditions: cultured on arrays thirteen days
Description: Differentiation Experiment: SIDQVEPYSSTAQ (FGF, SEQ ID NO:8) is known to bind FGF receptor. FGF signaling, in turn, can suppress hES cell differentiation. […] (SEQ ID NO:9) is known to bind BMP-receptor. BMP signaling induces hES cell differentiation. KKQRFRHRNRKG (VHB, SEQ ID NO:10) is a heparin binding motif from vitronectin. Vitronectin supports hES cell adhesion. RGD peptide is known to bind cell surface receptors (integrins) involved in adhesion of various cell types.
hES cells (H1B) were passaged using the protease dispase from Matrigel® to the peptide surface arrays described above containing either BMP/RGD, BMP/VHB, FGF, FGF/RGD or FGF/VHB at various concentrations. hES cells were cultured on the arrays for thirteen days, fixed and stained by immunofluorescence. The cells were stained for a marker of pluripotency, Oct-4 (Green), and counterstained with DAPI (Blue).

[5] = test system: hES cells (H1 and H9); assay: hES cell adhesion and growth screen on arrays of SAMs presenting peptides; assay type: cell-based, human; conditions: for Ability to support ES cell growth: laminin fragment screen on SAM array
Description: Human Embryonic Stem Cell Propagation and Plating: The human ES cell line, H1, was grown on Matrigel®-coated plates in MEF-CM supplemented with 4 ng/mL basic fibroblast growth factor (bFGF). To produce CM, MEFs were seeded at a density of 2.12×10^5 cells/mL and fed medium consisting of DMEM/F12, 20% Knockout™ serum replacement, 2 mM L-glutamine, 1% minimal essential media nonessential amino acids and 0.1 mM β-mercaptoethanol. Both cell lines (H1 and MEF) were maintained at 37° C./5% CO2 with CM collected, and cells fed approximately every 24 hours. Cell suspensions were made by treating with collagenase IV (1 mg/mL) for 10-12 minutes. The cells were scraped from the surface and suspended in CM.
Chips were sterilized as described above. To aid in ES cell patterning, the chips were then soaked in DMEM/F12 with 15% defined FBS for 1-2 hours and washed thoroughly. Then cells were plated on each chip (1-2×10^6 cells/chip) and allowed to incubate overnight. The next morning the chips were moved to fresh wells and fed with CM.
Test for alkaline phosphatase activity: The procedure for staining for alkaline phosphatase activity was essentially identical to the procedure supplied by the manufacturer. After propagation of the ES cells, the media was removed. The reagents in 100 mM Tris pH 8.5 were incubated with the chips for 30 minutes at 25° C. The chips were washed gently for 5 min with Tris buffer and then fixed and dried as usual.
We tested arrays of SAMs presenting a number of short peptides for their ability to support the growth of undifferentiated hES cells. The screen was done with the array presenting square elements of 0.5×0.5 mm (FIG. 1b) or 0.8×0.8 mm size (FIG. 1c). The 0.5×0.5 mm allowed 196 binding elements to be located on a single 22 mm square chip, and in turn the chip can easily fit in one well of a six-well culture plate. The ability of microarrays to localize multiple experiments to same a solution environment is invaluable for applications requiring frequent maintenance. For example, cultures of undifferentiated ES cell require daily changes of growth media. These changes can be easily performed on the entire microarray in one large well of a cell culture plate. For comparison, daily maintenance of experiments, on the same scale, performed in two 96-well plates, while practical, would require either significant human labor or specialized robotic equipment to function in a sterile environment to perform daily maintenance.
Cells grown on Matrigel® were detached using collagenase treatment and were plated on the microarray chip in the presence of CM. After twenty-four hours, media was replaced to remove dead and non-adherent cells. Attached cells were allowed to proliferate on the chip for five to six days and were supplement with fresh conditioned growth media daily. The experiment was stopped once cells reached 100% density in several (but not all) array elements. If continued, the cells in the array elements presenting 100% cell density usually detached, yielding square-shaped sheets of cells floating in solution, while cells in the other elements continued proliferation (not shown). This observation is consistent with those made earlier indicating cell growth variability in multi-component arrays and importance of the balanced duration of the experiment. Once the experiment was stopped, the cells were fixed and stained for markers of hES cell pluripotency. […]

Q: Which “Measured cell adhesion versus mole fraction of acid” value ([1]; SH-SY5Y, PEG acid-AT diluted with polyol-AT in spotting solutions) does the source give for `O=C(O)COCCOCCOCCOCCOCCCCCCCCCCCS` [PEG acid-AT] here?
A: The value was “decreased as the mole fraction of the acid in the spotting solutions approached 0.2”.

Q: And the “Cell binding to spotted SAM” value ([1]; SH-SY5Y, SAMs formed by spotting AT solutions on bare gold squares)?
A: Its value is “cells affixed to only the expected cytophilic surface”.

Q: What about the “Cell growth on surface” value ([1]; SH-SY5Y, chips with fluoro-AT SAM background and PEG acid-AT squares made by immersion) of the same compound?
A: Its value is “dense squares of cells”.

Q: What about the “Measured cell adhesion versus mole fraction of acid” value ([2]; Swiss 3T3, PEG acid-AT diluted with polyol-AT in spotting solutions) of the same compound?
A: Its value is “decreased as the mole fraction of the acid in the spotting solutions approached 0.2”.

Q: What about the “Cell growth on surface” value ([2]; Swiss-3T3, chips with fluoro-AT SAM background and PEG acid-AT squares made by immersion) of the same compound?
A: The value was “dense squares of cells”.

Q: “DIRVTLNRL (not fully specified (C-terminus); also: alkane thiol SAM)” was tested. Which “Oct4 (% population)” value [3] did it give?
A: The value was 99.62 % population.

Q: “DITYVRLKF (not fully specified (C-terminus); also: alkane thiol SAM)” was tested. Which “Oct4 (% population)” value [3] did it give?
A: Its value is 99.78 % population.

Q: What about the “Oct4 expression by FACS” value ([3]; hES cell line H9, UM100 media (100 mg/ml of FGF-2), 1 week of culture) of the same compound?
A: The value was “high level of Oct4 expression”.

Q: How did the “hES cell self-renewal / Oct-4 expression” value [4] turn out when “FGF: peptide known to bind FGF receptor (SIDQVEPYSSTAQ)” was run?
A: The value was “no longer express Oct-4”.

Q: With GNRWHSIYITRFG as the compound, how does the “Ability to support ES cell growth” value [5] read?
A: Its value is “support ES cell growth”.

Q: How did the “Oct4 (% population)” value [3] turn out when “GRNIAEIIKDI (not fully specified (C-terminus); also: alkane thiol SAM)” was run?
A: Its value is 98.12 % population.

Q: What about the “Cell binding to peptide on surface density gradient array” value ([5]; H1 cells, peptide-AT co-assembled with glucamine-AT) of the same compound?
A: The value was “exhibits specific binding”.

Q: “GRYVVLPR (not fully specified (C-terminus); also: alkane thiol SAM)” was tested. Which “Oct4 (% population)” value [3] did it give?
A: Its value is 98.99 % population.

Q: What does the source list for “SDPGYIGSR (not fully specified (C-terminus); also: SAM immobilized) [laminin peptide containing YIGSR recognition motif, presented on SAM in either orientation]”?
A: ES cell adhesion ([5]; N-to-C orientation exposing YIGSR moiety): supports cell adhesion for ES cells, albeit with moderate reproducibility; ES cell adhesion ([5]; switched surface orientation, exposing SDPG-portion, same plating environment): obliterates cell adhesion

Q: Which results are given for “YIGSR: sequence found in the matrix protein laminin, presented as peptide-AT array element (not fully specified (C-terminus); also: AT array conjugate) [reference compound]”?
A: Cell adherence to peptide array element ([1]; neuroblastoma cells, mixtures of polyol-AT and peptide-AT spotted): adhered; Ability to support ES cell growth [5]: support ES cell growth; Cell binding to peptide array element ([2]; fibroblasts, mixtures of polyol-AT and peptide-AT spotted): bound modestly
